{
  "source": "patent US20250360167A1",
  "about": "(Keryx Biopharmaceuticals, Inc., priority 2013, published 2025)",
  "assay_type_in_all_cases": "in vivo, human",
  "key": {"[1]": {"test_system": "transferrin saturation (TSAT)", "experiment": "Phase 3 trial (Example 1): TSAT", "parameters": "TSAT, Mean / TSAT, Median / TSAT, Change from Baseline, Mean / TSAT, Change from Baseline, Median / TSAT, LS Mean / TSAT, Treatment Differences, LS Mean (KRX-0502) − LS Mean (control): unit not given here", "settings": "for TSAT, Mean / TSAT, Median / TSAT, LS Mean / TSAT, Change from Baseline, Mean / TSAT, Change from Baseline, Median / TSAT, Treatment Differences, LS Mean (KRX-0502) − LS Mean (control): Table 16", "description": "Iron studies including serum iron, ferritin, TSAT, and total iron-binding capacity were done at Screening (Visit 0); at the Randomization Visit (Visit 4); at Visits 7 (Week 4), 9 (Week 8), 11 (Week 12), 12 (Week 16), 13 (Week 20), 14 (Week 24), 15 (Week 28), 16 (Week 32), 17 (Week 36), 18 (Week 40), 19 (Week 44), 20 (Week 48), and 21 (Week 52) of the 52-week Safety Assessment Period; and at Visit 25 (Week 56) of the Efficacy Assessment Period.\nChange from baseline in TSAT at Week 52 as compared to baseline (Visit 4). This variable will be analyzed using LOCF methodology. ANCOVA will be employed. The model will include treatment (fixed effect), and baseline (covariate). A sensitivity analysis will be performed using MMRM method.\n• 1. Change in serum calcium concentration at Weeks 12, 24, 36, 48, and 52 as compared to baseline (Visit 4). This variable will be analyzed using LOCF methodology. ANCOVA will be employed. The model will include treatment (fixed effect), and baseline (covariate). • 2. Change in ferritin, and TSAT at Weeks 12, 24, 36 and 48 as compared to baseline (Visit 4). This variable will be analyzed using LOCF methodology. ANCOVA will be employed. The model will include treatment (fixed effect), and baseline (covariate). • 3. Change in serum iron and TIBC at Weeks 12, 24, 36, 48, and 52 as compared to baseline (Visit 4). This variable will be analyzed using LOCF methodology. ANCOVA will be employed. The model will include treatment (fixed effect), and baseline (covariate). • 4. Change in Ca x P product at Weeks 12, 24, 36, 48, and 52 as compared to baseline (Visit 4). This variable will be analyzed using LOCF methodology. ANCOVA will be employed. The model will include treatment (fixed effect), and baseline (covariate). • 5. Change in iPTH at Weeks 12, 36, 52, and 56 as compared to baseline (Visit 4). This variable will be analyzed using LOCF methodology. ANCOVA will be employed. The model will include treatment (fixed effect), and baseline (covariate). • 6. Change in serum […], vitamin A, vitamin B-12, vitamin E, vitamin K and folic acid at Weeks 12, 36, and 52 as compared to baseline (Visit 4). This variable will be analyzed using LOCF methodology. ANCOVA will be employed. The model will include treatment (fixed effect), and baseline (covariate). • 7. Change in serum bicarbonate concentration at Weeks 12, 36, and 52 as compared to baseline (Visit 4). This variable will be analyzed using LOCF methodology. ANCOVA will be employed. The model will include treatment (fixed effect), and baseline (covariate). • 8. Change in IV iron intake at Weeks 12, 24, 36, 48, and 52 as compared to baseline (Visit 4). This variable will be analyzed using LOCF methodology. ANCOVA will be employed. The model will include treatment (fixed effect), and baseline (covariate). • 9. Change in the use of EPO (ESA) administered at Weeks 12, 24, 36, 48, and 52 as compared to baseline (Visit 4). This variable will be analyzed using LOCF methodology. ANCOVA will be employed. The model will include treatment (fixed effect), and baseline (covariate). • 10. Change in the use of Vitamin D supplementation (and its analogs) and Sensipar (cinacalcet) at Weeks 12, 24, 36, 48, and 52 as compared to baseline (Visit 4). This variable will be analyzed using LOCF methodology. ANCOVA will be employed. The model will include treatment (fixed effect), and baseline (covariate). • 11. Change in LDL, HDL, and triglycerides at Weeks 12, 36, and 52 as compared to baseline (Visit 4). This variable will be analyzed using LOCF methodology. ANCOVA will be employed. The model will include treatment (fixed effect), and baseline (covariate)."}, "[2]": {"experiment": "Phase 3 trial (Example 1): hospitalizations, cardiac severe adverse events", "protocol": "Safety was assessed by recording and monitoring adverse events, concomitant medication use, physical examinations, and sequential blood by treatment assignment. Rates of adverse events were summarized overall and by organ system class, preferred term, severity, and suspected relationship to study drug by treatment assignment. AEs were summarized for the Washout Period, Safety Assessment Period, and Efficacy Assessment Period separately by treatment assignment. The changes from baseline in laboratory parameters over time were summarized by treatment assignment."}, "hemoglobin": {"test_system": "hemoglobin", "experiment": "Phase 2 trial (Example 2): hemoglobin", "settings": "ITT group, n = 72", "description": "The key secondary endpoints of the study were the mean changes in ferritin, hemoglobin and FGF-23 from baseline to the end of the 12-week treatment period versus placebo in the ITT group."}, "[3]": {"settings": "Day 0 Baseline, Safety Assessment Period"}, "[4]": {"settings": "Active Control n = 149, Ferric Citrate n = 289"}, "[5]": {"settings": "Ferric Citrate vs Active Control"}, "[6]": {"settings": "percent of patients, Ferric Citrate N = 289, Active Control N = 149"}},
  "data": [
    {"substance": "iron (+3), x (1, 2, 3-propanetricarboxylic acid, 2-hydroxy-), y (H2O) [KRX-0502]", "values": [
      {"measurement": "Mean TSAT, LS Mean Difference from Active Control Group at Week 52", "setting": "[1]; ANCOVA, Table D", "result": 10, "unit": "%"},
      {"measurement": "Mean TSAT", "setting": "[1]; Baseline (Day 0), Table D", "result": 31, "unit": "%"},
      {"measurement": "TSAT, Mean", "setting": "[1]; [3]", "result": 31.0},
      {"measurement": "TSAT, Median", "setting": "[1]; [3]", "result": 29.5},
      {"measurement": "TSAT, LS Mean", "setting": "[1]; Week 12, ANCOVA", "result": 40.17},
      {"measurement": "Mean TSAT", "setting": "[1]; Week 12, LOCF, Table D", "result": 40, "unit": "%"},
      {"measurement": "TSAT, Change from Baseline, Mean", "setting": "[1]; Week 12", "result": 9.2},
      {"measurement": "TSAT, Change from Baseline, Median", "setting": "[1]; Week 12", "result": 7.0},
      {"measurement": "TSAT, Mean", "setting": "[1]; Week 12", "result": 40.2},
      {"measurement": "TSAT, Median", "setting": "[1]; Week 12", "result": 37.0},
      {"measurement": "TSAT, Treatment Differences, LS Mean (KRX-0502) − LS Mean (control)", "setting": "[1]; Week 12", "result": 8.74},
      {"measurement": "TSAT, LS Mean", "setting": "[1]; Week 24, ANCOVA", "result": 39.90},
      {"measurement": "Mean TSAT", "setting": "[1]; Week 24, LOCF, Table D", "result": 40, "unit": "%"},
      {"measurement": "TSAT, Change from Baseline, Mean", "setting": "[1]; Week 24", "result": 8.9},
      {"measurement": "TSAT, Change from Baseline, Median", "setting": "[1]; Week 24", "result": 7.0},
      {"measurement": "TSAT, Mean", "setting": "[1]; Week 24", "result": 39.9},
      {"measurement": "TSAT, Median", "setting": "[1]; Week 24", "result": 38.0},
      {"measurement": "TSAT, Treatment Differences, LS Mean (KRX-0502) − LS Mean (control)", "setting": "[1]; Week 24", "result": 8.28},
      {"measurement": "TSAT, LS Mean", "setting": "[1]; Week 36, ANCOVA", "result": 39.80},
      {"measurement": "Mean TSAT", "setting": "[1]; Week 36, LOCF, Table D", "result": 40, "unit": "%"},
      {"measurement": "TSAT, Change from Baseline, Mean", "setting": "[1]; Week 36", "result": 8.8},
      {"measurement": "TSAT, Change from Baseline, Median", "setting": "[1]; Week 36", "result": 7.0},
      {"measurement": "TSAT, Mean", "setting": "[1]; Week 36", "result": 39.8},
      {"measurement": "TSAT, Median", "setting": "[1]; Week 36", "result": 37.0},
      {"measurement": "TSAT, Treatment Differences, LS Mean (KRX-0502) − LS Mean (control)", "setting": "[1]; Week 36", "result": 9.44},
      {"measurement": "TSAT, LS Mean", "setting": "[1]; Week 48, ANCOVA", "result": 40.60},
      {"measurement": "Mean TSAT", "setting": "[1]; Week 48, LOCF, Table D", "result": 41, "unit": "%"},
      {"measurement": "TSAT, Change from Baseline, Mean", "setting": "[1]; Week 48", "result": 9.6},
      {"measurement": "TSAT, Change from Baseline, Median", "setting": "[1]; Week 48", "result": 7.0},
      {"measurement": "TSAT, Mean", "setting": "[1]; Week 48", "result": 40.6},
      {"measurement": "TSAT, Median", "setting": "[1]; Week 48", "result": 38.0},
      {"measurement": "TSAT, Treatment Differences, LS Mean (KRX-0502) − LS Mean (control)", "setting": "[1]; Week 48", "result": 11.17},
      {"measurement": "TSAT, LS Mean", "setting": "[1]; Week 52, ANCOVA", "result": 39.35},
      {"measurement": "Mean TSAT", "setting": "[1]; Week 52, LOCF, Table D", "result": 39, "unit": "%"},
      {"measurement": "TSAT, Change from Baseline, Mean", "setting": "[1]; Week 52", "result": 8.3},
      {"measurement": "TSAT, Change from Baseline, Median", "setting": "[1]; Week 52", "result": 6.0},
      {"measurement": "TSAT, Mean", "setting": "[1]; Week 52", "result": 39.4},
      {"measurement": "TSAT, Median", "setting": "[1]; Week 52", "result": 35.0},
      {"measurement": "TSAT, Treatment Differences, LS Mean (KRX-0502) − LS Mean (control)", "setting": "[1]; Week 52", "result": 9.66},
      {"measurement": "Mean TSAT, % Change from Baseline", "setting": "[1]; Week 52, relative change, Table D", "result": 25.8, "unit": "%"},
      {"measurement": "Mean TSAT, Change from Baseline at Week 52", "setting": "[1]; absolute TSAT points, Table D", "result": 8, "unit": "%"},
      {"measurement": "Average Hospitalizations per Subject", "setting": "[2]; [4]", "result": 0.63},
      {"measurement": "Subjects with One or More Hospitalizations, % of Study Subjects", "setting": "[2]; [4]", "result": 34.6, "unit": "%"},
      {"measurement": "Total Hospitalizations", "setting": "[2]; [4]", "result": 181},
      {"measurement": "Average Hospitalizations per Subject, % Improvement", "setting": "[2]; [5]", "result": 24.1, "unit": "%"},
      {"measurement": "Average Hospitalizations per Subject, Difference", "setting": "[2]; [5]", "result": "−0.20"},
      {"measurement": "Subjects with One or More Hospitalizations, Relative % Difference", "setting": "[2]; Ferric Citrate vs Active Control, p = 0.024", "result": "−24.2", "unit": "%"},
      {"measurement": "hospitalizations related to cardiac severe adverse events", "setting": "[2]; as compared to Active Control", "result": "able to reduce hospitalizations related to cardiac severe adverse events"},
      {"measurement": "Subjects with One or More Hospitalizations", "setting": "[2]; number of subjects, Active Control n = 149, Ferric Citrate n = 289", "result": 100},
      {"measurement": "Cardiac Disorders, %", "setting": "[2]; [6]", "result": 4.8, "unit": "%"},
      {"measurement": "Gastrointestinal Disorders, %", "setting": "[2]; [6]", "result": 6.2, "unit": "%"},
      {"measurement": "Infections, %", "setting": "[2]; [6]", "result": 12.1, "unit": "%"},
      {"measurement": "Mean Hemoglobin, Baseline", "setting": "hemoglobin; Baseline", "result": 10.5, "unit": "g/dL"},
      {"measurement": "Mean Hemoglobin, End of Treatment (Week 12)", "setting": "hemoglobin; Week 12, last observation carried forward", "result": 11.0, "unit": "g/dL"}
    ]}
  ]
}
